Results: patent publication US20080161378A1, “Novel Therapeutic Agent For Amyotrophic Lateral Sclerosis (Als) or Diseases Caused by Als” (priority 2004, published 2008)

Key:
ALS = details: Non-Patent Documents 1-5; cited from earlier work
patients of ALS [1] = experiment: Safety evaluation 6 months after administration, clinical laboratory test; format: in vivo, human; details: for BUN / CK / Creatinine / GOT / GPT / γ-GTP: average of patients of Example 2
Procedure: The patients of Example 2 were each subjected to a clinical laboratory test.
The following components were determined before and after drug administration using a large automated multichannel analyzer (automatic analyzer 7600-020s; Hitachi).

patients of ALS [2] = experiment: Efficacy evaluation 6 months after administration based on % FVC (percent predicted forced vital capacity); format: in vivo, human; details: for average rate of decrease of % FVC: before 1st administration period vs end of 6th administration period
Procedure: The term “% FVC” stands for percent predicted forced vital capacity; it is generally used as an index in a method for objectively evaluating respiratory function in ALS patients (ALS treatment guidelines 2002). In addition, in the case of ALS patients (placebo group), the rate of decrease of % FVC for during 6 months is 13.8% (The BDNF Study Group (Phase III), Neurology, 52, 1427 (1999)).
1 ampule of the aforementioned “Radicut injection 30 mg” was intravenously administered once daily to 4 patients of ALS. Single daily administration of the medicament took 30 minutes, and it was carried out for 14 consecutive days (the 1st administration period). […] Thereafter, intravenous administration of the medicament was carried out for 10 days (with no administration on Saturdays, Sundays, and national holidays) in the manner described above (the 2nd administration period). Then, treatments similar to those carried out in the 2nd administration period were repeated 4 times (the 3rd to the 6th administration periods).
The % FVC for each patient was determined using a chestac-11 (Chest). The average rate of decrease of % FVC was 9.3% when comparing % FVC before the 1st drug administration period and that at the end of the 6th drug administration period.
2 ampules of “Radicut injection 30 mg” (each of which contained 30 mg of edaravone) were intravenously administered once daily to 12 patients of ALS. Single daily administration of the medicament took 60 minutes and it was carried out for 14 consecutive days (the 1st administration period). […] Thereafter, intravenous administration of the medicament was carried out for 10 days (with no administration on Saturdays, Sundays, and national holidays) in the manner described above (the 2nd administration period). […]
The % FVC for each patient was determined using a chestac-11 (Chest), as with the case of the 30 mg group. […] In addition, partial pressure of arterial carbon dioxide (PaCO2) was determined. The PaCO2 of each patient was determined using a blood gas analyzer (Bayer 850; Bayer Medical).

patients of ALS [3] = experiment: Partial pressure of arterial carbon dioxide (PaCO2), blood gas analyzer; format: in vivo, human
Procedure: 2 ampules of “Radicut injection 30 mg” (each of which contained 30 mg of edaravone) were intravenously administered once daily to 12 patients of ALS. Single daily administration of the medicament took 60 minutes and it was carried out for 14 consecutive days (the 1st administration period). […] Thereafter, intravenous administration of the medicament was carried out for 10 days (with no administration on Saturdays, Sundays, and national holidays) in the manner described above (the 2nd administration period). Then, treatments similar to those carried out in the 2nd administration period were repeated 4 times (the 3rd to the 6th administration periods).
The % FVC for each patient was determined using a chestac-11 (Chest), as with the case of the 30 mg group. The average rate of decrease of % FVC was 4.5% when comparing % FVC before the 1st drug administration period and that at the end of the 6th drug administration period. In addition, partial pressure of arterial carbon dioxide (PaCO2) was determined. The PaCO2 of each patient was determined using a blood gas analyzer (Bayer 850; Bayer Medical).

patients of ALS [4] = experiment: Efficacy evaluation 6 months after administration based on ALSFRS-R (cumulative differences); format: in vivo, human; details: for Suppression rate (rate of "suppressed") in accordance with ALSFRS-R / Assessment based on cumulative differences in accordance with ALSFRS-R: Suppressed (number of cases): i.v. once daily; for Suppression rate (rate of "suppressed") in accordance with ALSFRS-R: 6 administration periods; for Assessment based on cumulative differences in accordance with ALSFRS-R: Suppressed (number of cases): 6 administration periods with drug holidays, suppressed = ratio between cumulative differences 50% or less; for Assessment based on cumulative differences in accordance with ALSFRS-R: No change (number of cases): no change = ratio 100% or more; for Assessment based on cumulative differences in accordance with ALSFRS-R: Slightly suppressed (number of cases): slightly suppressed = ratio more than 50% and less than 100%
Procedure: 1 ampule of “Radicut injection 30 mg” (containing 30 mg of edaravone, produced and marketed by Mitsubishi Pharma Corporation) was intravenously administered once daily to 5 patients of ALS. Single daily administration of the medicament took 30 minutes, and the administration was carried out for 14 consecutive days (the 1st administration period). […] Thereafter, intravenous administration of the medicament was carried out for 10 days (with no administration on Saturdays, Sundays, and national holidays) in the manner described above (the 2nd administration period). Then, treatments similar to those carried out in the 2nd administration period were repeated 4 times (the 3rd to 6th administration periods).
2 ampules of the aforementioned “Radicut injection 30 mg” were intravenously administered once daily to 14 patients of ALS. Single daily administration of the medicament took 60 minutes, and the administration was carried out for 14 consecutive days (the 1st administration period). […] Thereafter, the intravenous administration of the medicament was carried out for 10 days (with no administration on Saturdays, Sundays, and national holidays) in the manner described above (the 2nd administration period). Then, treatments similar to those carried out in the 2nd administration period were repeated 4 times (the 3rd to 6th administration periods).
In accordance with ALSFRS-R, the score at a time point “before the 1st administration period” (*) was determined to be a base point based on comparison of changes “before administration” and changes “during administration.” Then, patients were evaluated in the following manner.
• Difference at each time point before administration=(* before the 1st administration period)−(time point 1, 2 3, 4, 5 or 6 before administration) • Difference at each time point during administration=(time point i, ii, iii, iv, v, or vi before each administration period)−(* before the 1st administration period)
The sum of differences at time points before administration (defined as A)
A=(*−1)+(*−2)+(*−3)+(*−4)+(*−5)+(*−6)
The sum of differences at time points during administration (defined as B)
B=(i−*)+(ii−*)+(iii−*)+(iv−*)+(v−*)+(vi−*)
Averages of the sums of differences obtained in 2) were calculated so as to obtain cumulative differences. (The sums were divided by 6, based on 6 time points 1 to 6 before administration and 6 time points i to vi during administration).
Cumulative difference before administration=A/6
Cumulative difference during administration=B/6
Based on the averages obtained in 3), the ratio of cumulative difference before administration (A/6) to cumulative difference during administration (B/6) was expressed by the following formula:
(Formula)cumulative difference during administration/cumulative difference before administration×100.
Ratio between cumulative differences(%)=(B/6)/(A/6)×100.
Based on the “ratio between cumulative differences” obtained in 4), efficacy evaluation was made in accordance with the following criteria.

[5] = before administration (baseline)
[6] = overall conclusion of Example 2

CC(=O)N[C@@H](CS)C(=O)O [N-acetylcysteine]
prevention of decreased respiratory function in ALS (ALS): cannot prevent decreased respiratory function

CC1=NN(c2ccccc2)C(=O)C1 [Radicut injection 30 mg, 3-methyl-1-phenyl-2-pyrazolin-5-one]
BUN (patients of ALS [1]; after administration): 14.3 mg/dL | CK (patients of ALS [1]; after administration): 135.6 IU/L | Creatinine (patients of ALS [1]; after administration): 0.6 mg/dL | GOT (patients of ALS [1]; after administration): 19.1 IU/L | GPT (patients of ALS [1]; after administration): 19.6 IU/L | γ-GTP (patients of ALS [1]; after administration): 25.3 IU/L | BUN (patients of ALS [1]; [5]): 14.1 mg/dL | CK (patients of ALS [1]; [5]): 165.3 IU/L | Creatinine (patients of ALS [1]; [5]): 0.6 mg/dL | GOT (patients of ALS [1]; [5]): 21.3 IU/L | GPT (patients of ALS [1]; [5]): 22.2 IU/L | γ-GTP (patients of ALS [1]; [5]): 31.6 IU/L | clinical laboratory values after administration (safety) (patients of ALS [1]; patients of Example 2, 6 months after administration): did not increase to abnormal levels | average rate of decrease of % FVC (patients of ALS [2]; 30 mg group (4 ALS patients)): 9.3% | average rate of decrease of % FVC (patients of ALS [2]; 60 mg group (12 ALS patients)): 4.5% | decrease of % FVC in ALS patients (patients of ALS [2]; [6]): significantly suppressed | PaCO2 values before the 1st administration period and after the end of the 6th administration period (patients of ALS [3]; 60 mg group (12 ALS patients)): almost the same | increase of PaCO2 in ALS patients (patients of ALS [3]; [6]): significantly suppressed | Suppression rate (rate of "suppressed") in accordance with ALSFRS-R (patients of ALS [4]; 30 mg group (5 ALS patients)): 20% | Assessment based on cumulative differences in accordance with ALSFRS-R: Suppressed (number of cases) (patients of ALS [4]; 30 mg group (5 ALS patients)): 1 | Assessment based on cumulative differences in accordance with ALSFRS-R: No change (number of cases) (patients of ALS [4]; 30 mg group (5 ALS patients)): 1 | Assessment based on cumulative differences in accordance with ALSFRS-R: Slightly suppressed (number of cases) (patients of ALS [4]; 30 mg group (5 ALS patients)): 3 | Suppression rate (rate of "suppressed") in accordance with ALSFRS-R (patients of ALS [4]; 60 mg group (14 ALS patients)): 50% | Assessment based on cumulative differences in accordance with ALSFRS-R: Suppressed (number of cases) (patients of ALS [4]; 60 mg group (14 ALS patients)): 7 | Assessment based on cumulative differences in accordance with ALSFRS-R: No change (number of cases) (patients of ALS [4]; 60 mg group (14 ALS patients)): 6 | Assessment based on cumulative differences in accordance with ALSFRS-R: Slightly suppressed (number of cases) (patients of ALS [4]; 60 mg group (14 ALS patients)): 1

NCC1(CC(=O)O)CCCCC1 [gabapentin]
prevention of decreased respiratory function in ALS (ALS): cannot prevent decreased respiratory function

RhIGF-1: medicament examined as potential medicament for treating ALS
prevention of decreased respiratory function in ALS (ALS): cannot prevent decreased respiratory function

B1: BDNF: medicament examined as potential medicament for treating ALS (protein, UniProt P23560 19-247, looked up)
Neurotrophic factor BDNF …: APMKEANIRGQGGLAYPGVRTHGTLESVNGPKAGSRGLTSLADTFEHVIEELLDEDQKVRPNEENNKDADLYTSRVMLSSQVPLEPPLLFLLEEYKNYLDAANMSMRVRRHSDPARRGELSVCDSISEWVTAADKKTAVDMSGGTVTVLEKVPVSKGQLKQYFYETKCNPMGYTKEGCRGIDKRHWNSQCRTTQSYVRALTMDSKKRIGWRFIRIDTSCVCTLTIKRGR
prevention of decreased respiratory function in ALS (ALS): cannot prevent decreased respiratory function
